“Also recorded” adds a separate entry of the source.
Experiments:
SOCE [1] = tested on: SOCE; design: method as in PMID 30347159; settings: cited from earlier work
cerulein-induced AP = tested on: cerulein-induced AP; design: method as in PMID 30347159; settings: rodents; cited from earlier work
HEK cells = assay: HEK cell viability after 72 h at 50 μM with or without uridine (involvement of DHODH); settings: up to 60 μM
PK analysis in mice = format: in vivo; settings: C57BL/6, mouse, plasma, 7 mg/kg
Method: To further characterize the compound, a PK analysis was performed in mice. Briefly, mice were injected with 34 (i.v., 7 mg/kg, once) and serial blood sampling was performed.
(§1) All animal experiments observe the regulations in Italy (D.M. 116192) as well as the EU regulations (O.J. of E.C. L 358/1 12/18/1986). Compound 34 was injected i.v. at a dose of 7 mg/kg in C57BL/6 mice. Blood was collected after 5, 15, 30, 60, 120, 240, 360 min and 24 h. Aliquots of plasma samples were analyzed as previously reported.[16] AP was induced in mice by i.p. injections of cerulein, as already reported elsewhere.[16]
In vivo PK evaluation of compound 34.
Table S6. PK parameters of single administration of compound 34 (e.v., 7 mg/kg, n=5)
Parameter Unit Value S.D.

[2] = tested on: cerulein-induced murine model of AP; assay: Cerulein-induced murine model of AP; format: in vivo, mouse; settings: 10 mg/kg i.p. 30 and 150 min after first cerulein injection; tissue collected at 5 h
Method: The PK profile of our candidate prompted us to investigate its efficacy in a cerulein-induced murine model of AP.[29]
as §1

[3] = Thermodynamic aqueous solubility and solubility in in vivo vehicles; format: physicochemical
Method: Thermodynamic aqueous solubility was determined as follows: about 3 mg of the tested compound was weighed and dissolved in 3 mL of deionized water. After vigorous mixing by vortex followed by sonication for 5 min, the resulting supersaturated solution was shaken horizontally overnight at 25 °C. After filtration over a syringe filter (pore 0.22 μm, regenerate cellulose membrane), 100 μL of DMSO was added to 1 mL of the filtered solution. The resulting solution was further diluted in water (typically 1:10) before LC–UV analysis. Aqueous solubility was calculated comparing the filtrate peak area to those of the tested compound DMSO solutions. Solubility in aqueous media was also checked in the following vehicles at the target concentration of 6 mg/mL: saline + 10% DMSO, saline + 10% DMSO + 20% PEG400, saline + 5% ethanol.

SOCE [4] = assay: SOCE inhibition in HEK cells by fluorescence microscopy (calcium imaging); format: cell-based, human; settings: HEK cells, Figure S1
Method: With these two compounds in hand, two click reactions were performed and compounds 9 and 18 (Table 1), displaying the same substructures as the reference compound Synta66, were obtained with a yield of 31 and 60%, respectively. 9 and 18 were tested for activity on SOCE in HEK cells, a human embryonic kidney (HEK) cell line, by fluorescence microscopy, as described elsewhere.[16] After 600 s, Ca^2+ was added and intracellular levels were measured.
Screening, dose–response experiments, and calcium imaging experiments were performed in HEK cells (ATCC, Rock, ville, MD, USA), as already reported elsewhere.[16]

[5] = In vitro metabolic stability in mouse liver microsomes; format: in vitro ADME; settings: MLMs, 50 μM substrate, 3 mM GSH trapping agent, HRMS
Method: Next, the in vitro metabolic stability of the five candidates (31, 34, 36, 38, and 40) was evaluated in mouse liver microsomes (MLMs) activated by NADPH by measuring the substrate residual after 1 h. For comparative purposes, Synta66 was incubated in the same conditions.
Phase I and II (glucuronidation) incubations were performed in MLMs (pooled male mouse CD-1, protein concentration: 20 mg/mL, purchased from Corning B.V. Life Sciences—Amsterdam, The Netherlands) using the procedure previously described[16] with the following modifications: 5 μM substrate concentration for the determination of the residual percentage and 50 μM for 34 metabolite characterization by HRMS; when metabolic activation was studied, 3 mM GSH trapping agent was added in the incubation mixture.

[6] = intravenous, Table S6, single administration, e.v., n=5
[7] = iv, mice, i.v., once, read-out: half-life (t1/2) (converted)

| Cmax (PK analysis in mice; [6]) [ng/mL] | Tmax (PK analysis in mice; [6]) [h] | Cmax (PK analysis in mice; iv, mice, once) [ng/mL] | clearance at 24 h (PK analysis in mice; iv, mice, i.v., once, read-out: clearance (Cl) (converted)) [mL/min/kg] | half-life (PK analysis in mice; [7]) [h] | half-life at 24 h (PK analysis in mice; [7]) [h] | solubilization at 6 mg/mL in saline containing 10% DMSO + 20% PEG400 ([3]; nominal concentration 6 mg/mL, vehicle for in vivo administration) | increase in aqueous solubility of 34 compared to 36 ([3]; sodium salts) [fold] | solubility ([3]; thermodynamic, deionized water, 25 °C overnight, biphenyl triazoles as sodium salts, read-out: H2O solubility) [µg/mL] | Structure (SMILES) | IC50 (SOCE [1]) [µM] | efficacy in cerulein-induced AP (cerulein-induced AP) | cytotoxicity in HEK cells up to 60 μM (HEK cells) | histological scores of pancreatic tissue (H&E), inflammation and edema [2] | AUC compared to the reference compound Synta66 (SOCE [4]) | AUC, peak amplitude, and slope of the Ca2+-rise (SOCE [4]; selected compounds) | formation of glutathione (GSH) adducts [5] |
| --- | --- | --- | --- | --- | --- | --- | --- | --- | --- | --- | --- | --- | --- | --- | --- | --- |
|  |  |  |  |  |  |  |  |  | CCCC(C)OC(=O)c1cnn(-c2ccc(-n3cc(-c4cccc(C(=O)O)c4)nn3)cc2)c1C(F)(F)F (stereo not shown) [Compound 3] | 4.4 | demonstrated efficacy; also recorded: significantly ameliorate cerulein-induced AP in rodents without signs of toxicity |  |  |  |  |  |
| 16800 | 0.2 | 16800 | 8.33 | 3.21 | 3.2 | limpid solution | 80 | 1530 | COc1cccc(-c2ccc(-n3cc(-c4cccc(C(=O)O)c4)nn3)cc2)c1OC [Compound 34, 3-(1-(2′,3′-Dimethoxy-[1,1′-biphenyl]-4-yl)-1H-1,2,3-triazol-4-yl)benzoic Acid] |  |  | no detectable cytotoxicity | significantly ameliorate the histological scores; also recorded: efficacy in a mouse model of cerulein-induced AP | significantly reducing the AUC | induced a drop in the three parameters | did not highlight the formation of glutathione (GSH) adducts |
